Reference: patent US9708628B2, “Cationic lipid having improved intracellular kinetics” (NOF CORPORATION, priority 2011, dated 2017)

Columns and labels:
Format in all cases: cell-based
[1] = tested on: HT1080 cells; assay: Influence of endosome/lysosome acidification inhibition (bafilomycin A1) on gene expression activity; conditions: 0.5 μM bafilomycin A1
Protocol: Using B-2 (Example 1), B-2-1 (Comparative Example 1), and DODAP (Comparative Example 2) as cationic lipids, MENDs having a composition of cationic lipid:SOPE:Chol=5:3:2 were prepared by the method described in [Experimental Example 1] (2). For the preparation, PEG2000-DMG was used as PEG lipid, and MEND solutions corresponding to 0.55 mM of the lipid concentration were prepared. For cationic MEND, lipids having a composition of DOTAP (Comparative Example 3):DOPE:Chol:=3:4:3 were used, and the cationic MEND was prepared according to the method described in [Experimental Example 1] (3).
HT1080 cells were plated on a 24-well plate at 4×10^4 cell/500 μL/well 24 hr before, bafilomycin A1 was added at 0.5 μM 30 min before for a pre-treatment. Various MENDs were diluted with DMEM (FBS 10%+) to a pDNA amount of 0.4 μg/500 μL/well, bafilomycin A1 was added at 0.5 μM, and transfection was performed. 3 hr later, the MEND solution was removed, and DMEM (FBS 10%+) was added at 500 μL/well to change the medium. 24 hr later, the cells were washed with PBS(−) (500 μL), 1× Lysis buffer was added to each well by 75 μL, and the mixture was stood at −80° C. for 30 min or longer. The frozen 24-well plate was thawed on ice, the cells were detached with a cell scraper, and the total amount thereof was transferred into an Eppendorf tube and centrifuged under the conditions of 15000 rpm, 4° C., 5 min. The supernatant (50 μL) was recovered in a different Eppendorf tube, and used for luciferase assay and BCA assay. The gene expression was evaluated by the method described in [Example 4] (2).

[2] = tested on: HT1080 cells; assay: Intracellular kinetics: endosomal escape of rhodamine-labeled pDNA (confocal microscopy); conditions: for gene endosomal escape efficiency, quantified (order): FIG. 7; for endosomal escape potency (colocalization of pDNA red and endosome/lysosome green): cationic lipid:SOPE:Chol=5:3:2 or DOTAP:DOPE:Chol=3:4:3, 3 hr after transfection
Protocol: For MEND preparation, the Rhodamine-labeled pDNA prepared by the method of [Experimental Example 1] (4) was used. MEND having a composition of cationic lipid:SOPE:Chol=5:3:2 was prepared by the method described in [Experimental Example 1] (2). For the preparation, PEG2000-DMG was used as PEG lipid, and MEND solutions corresponding to 0.55 mM of the lipid concentration were prepared. For cationic MEND, lipids having a composition of DOTAP (Comparative Example 3):DOPE:Chol:=3:4:3 were used, and the cationic MEND was prepared according to the method described in [Experimental Example 1] (3). In addition, cationic MEND having a lipid composition of DOTAP:DOPE:Chol:=3:4:3 was also prepared by a simple hydration method to have a lipid concentration of 0.55 mM.
HT1080 cells were plated on a glass bottom dish at 1×10^5 cells/2 mL/dish 24 hr before. Since MENDs composed of B-2 or DODAP show low uptake activity into cells, MEND was diluted with Krebs buffer to pDNA 8 μg/1 mL Krebs buffer/dish. As for B-2-1 or DOTAP MEND having a high uptake activity, MEND was diluted with Krebs buffer to pDNA 1.6 μg/1 mL Krebs buffer/dish and transfected into the cells. After 2.5 hr, Lysotracker Green (Life technologies) was added at 1 μL/dish and, 30 min later, Hoechst 33342 (Dojindo) was further added at 1 μL/dish. 3 hr after the transfection, the cells were washed twice with heparin (20 units/mL, 2 mL), Krebs buffer (1 mL) was added, and the mixture was observed by a confocal laser scan microscope.
Rhodamine-labeled pDNA, endosome/lysosome, and nucleus were shown in pseudo colors of red, green and blue, respectively. The endosomal escape potency was evaluated by the colocalization of red and green. […] Furthermore, the gene endosomal escape efficiency was quantified to find higher efficiency in the order of DODAP<B-2-1<B-2.

[3] = tested on: HT1080 cells; assay: Time-course evaluation of gene expression using Kronos Dio (luciferase, RLU/2 min); conditions: pDNA 1.6 μg/2 mL/dish
Protocol: MENDs of B-2-4 (Example 4), B-2 (Example 1) were prepared according to [Experimental Example 1] (1), (2), and [Experimental Example 18]. For the preparation, PEG2000-DMG was used as PEG lipid, and MEND solutions corresponding to 0.55 mM of the lipid concentration were prepared. For cationic MEND, lipids having a composition of DOTAP (Comparative Example 3):DOPE:Chol:=3:4:3 were used, and the cationic MEND was prepared according to the method described in [Experimental Example 1] (3).
(§1) HT1080 cells were plated on a 3.5 cm cell culture dish at 4×10^4 cells/2 mL/dish 24 hr before, various MENDs were diluted with DMEM (FES 10%+, Phenol red free) containing a final concentration of 200 μM of D-luciferin potassium to achieve 1.6 μg/2 mL/dish based on the pDNA amount and transfection was performed. According to the Kronos Dio package insert, the luminescence amount was measured for 2 min every 20 min and taken as the luciferase activity (RLU/2 min).

[4] = tested on: HT1080 cells; assay: Influence of endosomal acidification inhibitor BafA1 (Kronos Dio); conditions: 0.5 μM BafA1
Protocol: MENDs of B-2-4 (Example 4), B-2 (Example 1) were prepared according to [Experimental Example 1] (1), (2), [Experimental Example […]]. For the preparation, PEG2000-DMG was used as PEG lipid, and MEND solutions corresponding to 0.55 mM of the lipid concentration were prepared.
HT1080 cells were plated on a 3.5 cm cell culture dish at 4×10^4 cells/2 mL/dish 24 hr before. The medium was changed to DMEM (FBS 10%+) containing 0.5 μM BafA1 (Bafilomycin A1) 30 min before transfection. 30 min later, various MENDs were added to the dish at 1.6 μg/2 mL/dish based on the pDNA amount. 3 hr after the transfection, the medium was changed to DMEM (FBS 10%+, Phenol red free) containing a final concentration 200 μM of D-luciferin potassium. According to the Kronos Dio package insert, the luminescence amount was measured for 2 min every 20 min and taken as the luciferase activity (RLU/2 min).

[5] = tested on: HT1080 cells; assay: Inhibitory effect of GA (ginkgolic acid) on gene expression; conditions: 0, 25, 50, 100 μM GA
Protocol: MENDs of B-2-4 (Example 4), B-2 (Example 1) were prepared according to [Experimental Example 16], [Experimental Example 1] (1), (2). For the preparation, PEG2000-DMG was used as PEG lipid, and MEND solutions corresponding to 0.55 mM of the lipid concentration were prepared.
as §1, with “(FBS” for “(FES”, “potassium and 0, 25, 50, 100 μM of GA (Calbiochem)” for “potassium”

Row | SMILES | gene expression activity under bafilomycin A1 [1] | gene endosomal escape efficiency, quantified (order) [2] | endosomal escape potency (colocalization of pDNA red and endosome/lysosome green) [2] | gene expression activity (luciferase, RLU/2 min), time course [3] | activity under endosomal acidification inhibition using BafA1 [4] | inhibitory effect of GA on gene expression activity [5]
1 | CCCCCCCC/C=C\CCCCCCCC(=O)OCC(CN(C)C)OC(=O)CCCCCCC/C=C\CCCCCCCC (centres unmarked) [DODAP, reference compound] | showed a decrease in the gene expression activity | DODAP<B-2-1<B-2 | colocalization of red and green was notable | – | – | –
2 | CCCCCCCC/C=C\CCCCCCCC(=O)OCC(C[N+](C)(C)C)OC(=O)CCCCCCC/C=C\CCCCCCCC (centres unmarked) [DOTAP, reference compound] | did not show a decrease in the gene expression activity | – | red signal alone was present | – | – | –
3 | CCCCCCCCCCCCCC(=O)OCCCN(C)CCCCCCN(C)CCCOC(=O)CCCCCCCCCCCCC [Example B-2-1, reference compound] | did not show a decrease in the gene expression activity | DODAP<B-2-1<B-2 | red signal alone was present | – | – | –
4 | CC1=C(/C=C/C(C)=C/C=C/C(C)=C/C(=O)OCCCN(C)CCSSCCN(C)CCCOC(=O)/C=C(C)/C=C/C=C(C)/C=C/C2=C(C)CCCC2(C)C)C(C)(C)CCC1 [Example B-2-4] | – | – | – | significantly higher than that of MENDs formed from B-2-1 and DOTAP | inhibited | higher inhibitory effect on B-2-4 than on B-2
5 | CCCCCCCCCCCCCC(=O)OCCCN(C)CCSSCCN(C)CCCOC(=O)CCCCCCCCCCCCC [Example B-2] | showed a decrease in the gene expression activity | DODAP<B-2-1<B-2 | red signal alone was present | equivalent to that of DOTAP | inhibited | higher inhibitory effect on B-2-4 than on B-2
